Experimental data from patent US7750003B2, “Compounds-943” (AstraZeneca AB, priority 2006, dated 2010).

biological target: recombinant mTOR (FLAG-tagged, residues 1362-2549) (Homo sapiens, UniProt P42345); test: In vitro mTOR kinase assay (Test (a), AlphaScreen); assay type: biochemical; conditions: ATP 20 μM, read-out: Test (a): IC50 versus mTOR kinase
Summary of the method: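 AlphaScreen read-out: a phospho-T389 p70 S6K antibody on acceptor beads captures the phosphorylated biotin-peptide on donor beads, with signal loss indicating inhibition.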

Chain of recombinant mTOR (FLAG-tagged, residues 1362-2549) (P42345 1362-2549): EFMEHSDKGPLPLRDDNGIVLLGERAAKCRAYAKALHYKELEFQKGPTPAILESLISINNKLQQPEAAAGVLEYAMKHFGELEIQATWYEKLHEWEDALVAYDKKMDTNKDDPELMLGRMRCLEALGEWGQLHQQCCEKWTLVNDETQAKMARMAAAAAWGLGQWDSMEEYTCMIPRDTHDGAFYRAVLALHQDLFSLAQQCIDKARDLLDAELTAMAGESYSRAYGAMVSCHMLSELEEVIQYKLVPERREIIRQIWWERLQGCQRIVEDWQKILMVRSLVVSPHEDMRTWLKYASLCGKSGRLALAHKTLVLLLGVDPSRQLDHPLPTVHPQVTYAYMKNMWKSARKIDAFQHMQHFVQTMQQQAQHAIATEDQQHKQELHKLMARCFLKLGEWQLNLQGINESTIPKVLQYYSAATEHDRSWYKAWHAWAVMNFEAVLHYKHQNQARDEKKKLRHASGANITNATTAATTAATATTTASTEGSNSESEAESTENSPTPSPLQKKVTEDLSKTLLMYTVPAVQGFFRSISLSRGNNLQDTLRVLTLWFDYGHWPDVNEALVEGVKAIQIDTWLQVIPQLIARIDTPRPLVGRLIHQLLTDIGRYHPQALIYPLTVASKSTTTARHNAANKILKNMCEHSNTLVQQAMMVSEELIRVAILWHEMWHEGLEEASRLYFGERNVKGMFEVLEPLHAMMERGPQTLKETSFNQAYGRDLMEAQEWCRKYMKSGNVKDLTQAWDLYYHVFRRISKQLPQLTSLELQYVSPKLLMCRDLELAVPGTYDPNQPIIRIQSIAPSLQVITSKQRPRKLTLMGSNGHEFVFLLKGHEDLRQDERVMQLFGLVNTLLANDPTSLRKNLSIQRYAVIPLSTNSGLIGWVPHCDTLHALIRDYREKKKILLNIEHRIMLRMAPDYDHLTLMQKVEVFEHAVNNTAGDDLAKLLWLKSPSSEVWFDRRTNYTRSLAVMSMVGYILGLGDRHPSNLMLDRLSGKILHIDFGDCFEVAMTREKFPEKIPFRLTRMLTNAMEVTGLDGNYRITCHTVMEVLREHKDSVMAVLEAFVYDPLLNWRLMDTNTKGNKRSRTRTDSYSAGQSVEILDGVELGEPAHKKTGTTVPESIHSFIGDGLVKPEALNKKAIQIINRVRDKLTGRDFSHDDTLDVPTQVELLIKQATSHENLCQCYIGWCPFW

Q: For `COCCNC(=O)Nc1ccc(-c2nc(CS(=O)(=O)c3ccccc3)cc(N3CCOC[C@@H]3C)n2)cc1` [Example 20j, 1-[4-[4-(benzenesulfonylmethyl)-6-[(3S)-3-methylmorpholin-4-yl]pyrimidin-2-yl]phenyl]-3-(2-methoxyethyl)urea], which IC50 is on record?
A: The IC50 was 750 nM.

Q: With `CNC(=O)Nc1ccc(-c2nc(CS(=O)(=O)C(C)C)cc(N3CCOCC3)n2)cc1` [Example 20k, 3-methyl-1-[4-[4-morpholin-4-yl-6-(propan-2-ylsulfonylmethyl)pyrimidin-2-yl]phenyl]urea] as the molecule, how does the IC50 read?
A: The IC50 was 36 nM.

Q: With `CCNC(=O)Nc1ccc(-c2nc(CS(=O)(=O)C(C)C)cc(N3CCOCC3)n2)cc1` [Example 20l, 1-ethyl-3-[4-[4-morpholin-4-yl-6-(propan-2-ylsulfonylmethyl)pyrimidin-2-yl]phenyl]urea] as the molecule, how does the IC50 read?
A: The IC50 was 74 nM.

Q: How did the IC50 turn out when `CC(C)S(=O)(=O)Cc1cc(N2CCOCC2)nc(-c2ccc(NC(=O)NC3CC3)cc2)n1` [Example 20m, 3-cyclopropyl-1-[4-[4-morpholin-4-yl-6-(propan-2-ylsulfonylmethyl)pyrimidin-2-yl]phenyl]urea] was run?
A: Its IC50 is 81 nM.

Q: How did the IC50 turn out when `CC(C)S(=O)(=O)Cc1cc(N2CCOCC2)nc(-c2ccc(NC(=O)NCCN(C)C)cc2)n1` [Example 20n, 3-(2-dimethylaminoethyl)-1-[4-[4-morpholin-4-yl-6-(propan-2-ylsulfonylmethyl)pyrimidin-2-yl]phenyl]urea] was run?
A: Its IC50 is 860 nM.

Q: For `CC(C)S(=O)(=O)Cc1cc(N2CCOCC2)nc(-c2ccc(NC(=O)NC3CCN(C)CC3)cc2)n1` [Example 20o, 3-(1-methyl-4-pipendyl)-1-[4-[4-morpholin-4-yl-6-(propan-2-ylsulfonylmethyl)pyrimidin-2-yl]phenyl]urea], which IC50 is on record?
A: The IC50 was 1300 nM.

Q: `COCCNC(=O)Nc1ccc(-c2nc(CS(=O)(=O)C(C)C)cc(N3CCOCC3)n2)cc1` [Example 20p, 3-(2-methoxyethyl)-1-[4-[4-morpholin-4-yl-6-(propan-2-ylsulfonylmethyl)pyrimidin-2-yl]phenyl]urea] was tested. Which IC50 did it give?
A: Its IC50 is 910 nM.

Q: How did the IC50 turn out when `CCNC(=O)Nc1ccc(-c2nc(CS(=O)(=O)C(C)C)cc(N3CCOC[C@@H]3C)n2)cc1` [Example 20q, 1-ethyl-3-[4-[4-[(3S)-3-methylmorpholin-4-yl]-6-(propan-2-ylsulfonylmethyl)pyrimidin-2-yl]phenyl]urea] was run?
A: Its IC50 is 39 nM.

Q: With `CC(C)S(=O)(=O)Cc1cc(N2CCOC[C@@H]2C)nc(-c2ccc(NC(=O)NC3CC3)cc2)n1` [Example 20r, 3-cyclopropyl-1-[4-[4-[(3S)-3-methylmorpholin-4-yl]-6-(propan-2-ylsulfonylmethyl)pyrimidin-2-yl]phenyl]urea] as the molecule, how does the IC50 read?
A: The IC50 was 94 nM.

Q: `CC(C)S(=O)(=O)Cc1cc(N2CCOC[C@@H]2C)nc(-c2ccc(NC(=O)NCCN(C)C)cc2)n1` [Example 20s, 3-(2-dimethylaminoethyl)-1-[4-[4-[(3S)-3-methylmorpholin-4-yl]-6-(propan-2-ylsulfonylmethyl)pyrimidin-2-yl]phenyl]urea] was tested. Which IC50 did it give?
A: Its IC50 is 620 nM.

Q: For `CC(C)S(=O)(=O)Cc1cc(N2CCOC[C@@H]2C)nc(-c2ccc(NC(=O)NC3CCN(C)CC3)cc2)n1` [Example 20t, 1-[4-[4-[(3S)-3-methylmorpholin-4-yl]-6-(propan-2-ylsulfonylmethyl)pyrimidin-2-yl]phenyl]-3-(1-methyl-4-piperidyl)urea], which IC50 is on record?
A: Its IC50 is 600 nM.

Q: `COCCNC(=O)Nc1ccc(-c2nc(CS(=O)(=O)C(C)C)cc(N3CCOC[C@@H]3C)n2)cc1` [Example 20u, 3-(2-methoxyethyl)-1-[4-[4-[(3S)-3-methylmorpholin-4-yl]-6-(propan-2-ylsulfonylmethyl)pyrimidin-2-yl]phenyl]urea] was tested. Which IC50 did it give?
A: Its IC50 is 270 nM.

Q: `CNC(=O)Nc1ccc(-c2nc(N3CCOCC3)cc(C(C)(C)S(C)(=O)=O)n2)cc1` [Example 21, 3-Methyl-1-[4-[4-(2-methylsulfonylpropan-2-yl)-6-morpholin-4-yl-pyrimidin-2-yl]phenyl]urea] was tested. Which IC50 did it give?
A: The IC50 was 50 nM.

Q: `CCNC(=O)Nc1ccc(-c2nc(N3CCOCC3)cc(C(C)(C)S(C)(=O)=O)n2)cc1` [Example 21a, 1-ethyl-3-[4-[4-(2-methylsulfonylpropan-2-yl)-6-morpholin-4-yl-pyrimidin-2-yl]phenyl]urea] was tested. Which IC50 did it give?
A: Its IC50 is 730 nM.

Q: How did the IC50 turn out when `CC(C)(c1cc(N2CCOCC2)nc(-c2ccc(NC(=O)NC3CC3)cc2)n1)S(C)(=O)=O` [Example 21b, 3-cyclopropyl-1-[4-[4-(2-methylsulfonylpropan-2-yl)-6-morpholin-4-yl-pyrimidin-2-yl]phenyl]urea] was run?
A: Its IC50 is 360 nM.

Q: For `CN(C)CCNC(=O)Nc1ccc(-c2nc(N3CCOCC3)cc(C(C)(C)S(C)(=O)=O)n2)cc1` [Example 21c, 3-(2-dimethylaminoethyl)-1-[4-[4-(2-methylsulfonylpropan-2-yl)-6-morpholin-4-yl-pyrimidin-2-yl]phenyl]urea], which IC50 is on record?
A: Its IC50 is 480 nM.

Q: With `CN1CCC(NC(=O)Nc2ccc(-c3nc(N4CCOCC4)cc(C(C)(C)S(C)(=O)=O)n3)cc2)CC1` [Example 21d, 3-(1-methyl-4-piperidyl)-1-[4-[4-(2-methylsulfonylpropan-2-yl)-6-morpholin-4-yl-pyrimidin-2-yl]phenyl]urea] as the molecule, how does the IC50 read?
A: The IC50 was 270 nM.

Q: How did the IC50 turn out when `COCCNC(=O)Nc1ccc(-c2nc(N3CCOCC3)cc(C(C)(C)S(C)(=O)=O)n2)cc1` [Example 21e, 3-(2-methoxyethyl)-1-[4-[4-(2-methylsulfonylpropan-2-yl)-6-morpholin-4-yl-pyrimidin-2-yl]phenyl]urea] was run?
A: The IC50 was 1000 nM.

Q: For `CNC(=O)Nc1ccc(-c2nc(N3CCOC[C@@H]3C)cc(C(C)(C)S(C)(=O)=O)n2)cc1` [Example 21f, 3-methyl-1-[4-[4-[(3S)-3-methylmorpholin-4-yl]-6-(2-methylsulfonylpropan-2-yl)pyrimidin-2-yl]phenyl]urea], which IC50 is on record?
A: Its IC50 is 17 nM.

Q: Which IC50 does the source give for `CCNC(=O)Nc1ccc(-c2nc(N3CCOC[C@@H]3C)cc(C(C)(C)S(C)(=O)=O)n2)cc1` [Example 21g, 1-ethyl-3-[4-[4-[(3S)-3-methylmorpholin-4-yl]-6-(2-methylsulfonylpropan-2-yl)pyrimidin-2-yl]phenyl]urea] here?
A: The IC50 was 20 nM.

Q: For `C[C@H]1COCCN1c1cc(C(C)(C)S(C)(=O)=O)nc(-c2ccc(NC(=O)NCCN(C)C)cc2)n1` [Example 21i, 3-(2-dimethylaminoethyl)-1-[4-[4-[(3S)-3-methylmorpholin-4-yl]-6-(2-methylsulfonylpropan-2-yl)pyrimidin-2-yl]phenyl]urea], which IC50 is on record?
A: Its IC50 is 76 nM.

Q: Which IC50 does the source give for `C[C@H]1COCCN1c1cc(C(C)(C)S(C)(=O)=O)nc(-c2ccc(NC(=O)NC3CCN(C)CC3)cc2)n1` [Example 21j, 1-[4-[4-[(3S)-3-methylmorpholin-4-yl]-6-(2-methylsulfonylpropan-2-yl)pyrimidin-2-yl]phenyl]-3-(1-methyl-4-piperidyl)urea] here?
A: Its IC50 is 510 nM.

Q: `COCCNC(=O)Nc1ccc(-c2nc(N3CCOC[C@@H]3C)cc(C(C)(C)S(C)(=O)=O)n2)cc1` [Example 21k, 3-(2-methoxyethyl)-1-[4-[4-[(3S)-3-methylmorpholin-4-yl]-6-(2-methylsulfonylpropan-2-l)pyrimidin-2-yl]phenyl]urea] was tested. Which IC50 did it give?
A: Its IC50 is 310 nM.

Q: For `C[C@H]1COCCN1c1cc(CS(C)(=O)=O)nc(-c2ccc(NC(=O)Nc3ncccn3)cc2)n1` [Example 22a, 1-[4-[4-[(3S)-3-methylmorpholin-4-yl]-6-(methylsulfonylmethyl)pyrimidin-2-yl]phenyl]-3-pyrimidin-2-yl-urea], which IC50 is on record?
A: Its IC50 is 60 nM.

Q: How did the IC50 turn out when `Cc1cccc(C)c1NC(=O)Nc1ccc(-c2nc(CS(C)(=O)=O)cc(N3CCOC[C@@H]3C)n2)cc1` [Example 22b, 1-(2,6-dimethylphenyl)-3-[4-[4-[(3S)-3-methylmorpholin-4-yl]-6-(methylsulfonylmethyl)pyrimidin-2-yl]phenyl]urea] was run?
A: Its IC50 is 1600 nM.

Q: How did the IC50 turn out when `Cc1cc(NC(=O)Nc2ccc(-c3nc(CS(C)(=O)=O)cc(N4CCOC[C@@H]4C)n3)cc2)no1` [Example 22d, 3-[4-[4-[(3S)-3-methylmorpholin-4-yl]-6-(methylsulfonylmethyl)pyrimidin-2-yl]phenyl]-1-(5-methyl-1,2-oxazol-3-yl)urea] was run?
A: The IC50 was 4.8 nM.

Q: For `Cc1oncc1NC(=O)Nc1ccc(-c2nc(CS(C)(=O)=O)cc(N3CCOC[C@@H]3C)n2)cc1` [Example 22e, 3-[4-[4-[(3S)-3-methylmorpholin-4-yl]-6-(methylsulfonylmethyl)pyrimidin-2-yl]phenyl]-1-(5-methyl-1,2-oxazol-4-yl)urea], which IC50 is on record?
A: The IC50 was 560 nM.

Q: Which IC50 does the source give for `C[C@H]1COCCN1c1cc(CS(C)(=O)=O)nc(-c2ccc(NC(=O)Nc3cnn(C)c3)cc2)n1` [Example 22f, 1-[4-[4-[(3S)-3-methylmorpholin-4-yl]-6-(methylsulfonylmethyl)pyrimidin-2-yl]phenyl]-3-(1-methylpyrazol-4-yl)urea] here?
A: The IC50 was 91 nM.

Q: `C[C@H]1COCCN1c1cc(CS(C)(=O)=O)nc(-c2ccc(NC(=O)Nc3cc[nH]c(=O)c3)cc2)n1` [Example 22g, 1-[4-[4-[(3S)-3-methylmorpholin-4-yl]-6-(methylsulfonylmethyl)pyrimidin-2-yl]phenyl]-3-(2-oxo-1H-pyridin-4-yl)urea] was tested. Which IC50 did it give?
A: Its IC50 is 4.5 nM.

Q: Which IC50 does the source give for `Cc1nn(C)c(C)c1NC(=O)Nc1ccc(-c2nc(CS(C)(=O)=O)cc(N3CCOC[C@@H]3C)n2)cc1` [Example 22h, 3-[4-[4-[(3S)-3-methylmorpholin-4-yl]-6-(methylsulfonylmethyl)pyrimidin-2-yl]phenyl]-1-(1,3,5-trimethylpyrazol-4-yl)urea] here?
A: The IC50 was 1500 nM.

Q: With `Cc1n[nH]c(C)c1NC(=O)Nc1ccc(-c2nc(CS(C)(=O)=O)cc(N3CCOC[C@@H]3C)n2)cc1` [Example 22i, 1-(3,5-dimethyl-1H-pyrazol-4-yl)-3-[4-[4-[(3S)-3-methylmorpholin-4-yl]-6-(methylsulfonylmethyl)pyrimidin-2-yl]phenyl]urea] as the molecule, how does the IC50 read?
A: The IC50 was 4300 nM.

Q: With `CNC(=O)NC1CCN(c2nc(CS(C)(=O)=O)cc(N3CCOC[C@@H]3C)n2)CC1` [Example 23, 3-Methyl-1-[1-[4-[(3S)-3-methylmorpholin-4-yl]-6-(methylsulfonylmethyl)pyrimidin-2-yl]-4-piperidyl]urea] as the molecule, how does the IC50 read?
A: The IC50 was 5600 nM.

Q: How did the IC50 turn out when `CCNC(=O)NC1CCN(c2nc(CS(C)(=O)=O)cc(N3CCOC[C@@H]3C)n2)CC1` [Example 23a, 1-ethyl-3-[1-[4-[(3S)-3-methylmorpholin-4-yl]-6-(methylsulfonylmethyl)pyrimidin-2-yl]-4-piperidyl]urea] was run?
A: The IC50 was 3700 nM.
